In article PMC8274516, “Identification of imidazo[4,5-c]pyridin-2-one derivatives as novel Src family kinase inhibitors against glioblastoma” (Journal of Enzyme Inhibition and Medicinal Chemistry, 2021):
Where two headings read alike, the source gives them in different places.

Tests used:
[1] = target: T1, Src (Homo sapiens, UniProt P12931); assay: HTRF KinEASE-TK enzymatic assay, Src; type: biochemical; details: for Inhibition (1 μM, %) Src: compound at 1 μM, ATP at Km (16 µM), average of two independent experiments
T1 construct: purchased Carna Biosciences 08-173

[2] = target: T2, Fyn (Homo sapiens, UniProt P06241); assay: HTRF KinEASE-TK enzymatic assay, Fyn; type: biochemical; details: for Inhibition (1 μM, %) Fyn: compound at 1 μM; for Inhibition (1 μM, %) Fyn / IC50: ATP at Km (51.76 µM), average of two independent experiments
T2 construct: purchased Carna Biosciences 08-168
T2 sequence (P06241 whole entry): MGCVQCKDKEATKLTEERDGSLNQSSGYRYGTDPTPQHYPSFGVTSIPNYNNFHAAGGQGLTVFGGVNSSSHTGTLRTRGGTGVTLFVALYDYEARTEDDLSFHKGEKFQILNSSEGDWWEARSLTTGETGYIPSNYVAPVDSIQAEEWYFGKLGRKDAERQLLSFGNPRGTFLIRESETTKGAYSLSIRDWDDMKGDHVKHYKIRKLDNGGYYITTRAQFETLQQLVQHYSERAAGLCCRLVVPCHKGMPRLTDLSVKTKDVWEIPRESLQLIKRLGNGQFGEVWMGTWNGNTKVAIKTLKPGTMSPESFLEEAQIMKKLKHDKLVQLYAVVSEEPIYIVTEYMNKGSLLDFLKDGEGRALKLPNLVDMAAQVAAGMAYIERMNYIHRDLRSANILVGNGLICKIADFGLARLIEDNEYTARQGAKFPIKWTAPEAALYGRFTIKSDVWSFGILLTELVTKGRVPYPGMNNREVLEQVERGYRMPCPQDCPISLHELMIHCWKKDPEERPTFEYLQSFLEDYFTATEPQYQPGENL

[3] = system: U87 GBM cell line; assay: Cell proliferation inhibition assay (MTT), U87; type: cell-based; details: 72 h, mean of at least three independent experiments, read-out: Antiproliferative activity IC50, U87
Protocol: (§1) GBM cell lines U87, U251, and T98G (purchased from the American Type Culture Collection Company, Manassas, VA) were cultured in Roswell Park Memorial Institute (RPMI) 1640 medium containing 10% foetal bovine serum (FBS) at 37 °C in 5% CO2 incubator. The U87-EGFRvIII cell line established with EGFRvIII, kindly provided by Professor Xingmei Zhang, and grown in DMEN supplement with 10% FBS and […] G418 (Sigma-Aldrich, St. Louis, MO) at 37 °C in 5% CO2 incubator. The anti-proliferative activities of the compounds to be tested against four glioblastoma cell lines were determined by standard MTT method. In order to determine the anti-proliferation effect of the tested compounds, four cell lines were inoculated at a density of 2 × 10^3 cells/ml and treated with compounds at a concentration of 1–100 µM. The cells were co-incubated with different concentrations of the tested drugs for 72 h, and 10% MTT solution diluted in 100 µL medium was added. After 4 h of incubation, the absorbance value of each hole was measured at […] with an enzyme-linked immunosorbent assay plate reader. All compounds were tested three times in each cell line.

[4] = system: U251 GBM cell line; assay: Cell proliferation inhibition assay (MTT), U251; type: cell-based; details: mean of at least three independent experiments, read-out: Antiproliferative activity IC50, U251
Protocol: as §1

[5] = system: T98G GBM cell line; assay: Cell proliferation inhibition assay (MTT), T98G; type: cell-based; details: 72 h, mean of at least three independent experiments, read-out: Antiproliferative activity IC50, T98G
Protocol: as §1

[6] = system: U87-EGFRvIII GBM cell line; assay: Cell proliferation inhibition assay (MTT), U87-EGFRvIII; type: cell-based; details: 72 h, mean of at least three independent experiments, read-out: Antiproliferative activity IC50, U87-EGFRvIII

| Compound | inhibition at 1 µM [1] | inhibition at 1 µM [2] | also measured |
| --- | --- | --- | --- |
| 4-amino-1-(3-bromophenyl)-3-(4-chlorophenyl)-1H-imidazo[4,5-c]pyridin-2(3H)-one [Compound 1c] |  |  | Inhibition (1 μM, %) Src [1]: 68%; Inhibition (1 μM, %) Fyn [2]: 31% |
| 4-amino-3-(4-chlorophenyl)-1-(m-tolyl)-1H-imidazo[4,5-c]pyridin-2(3H)-one [Compound 1b] |  |  | Inhibition (1 μM, %) Src [1]: 54%; Inhibition (1 μM, %) Fyn [2]: 11% |
| Nc1nccc2c1n(-c1ccc(Cl)cc1)c(=O)n2-c1ccccc1 [Compound 1a, 4-amino-3-(4-chlorophenyl)-1-phenyl-1H-imidazo[4,5-c]pyridin-2(3H)-one] | 78% | 35% |  |
| Nc1nccc2c1n(-c1ccc(Cl)cc1)c(=O)n2C1CCCC1 [Compound 1d, 4-amino-3-(4-chlorophenyl)-1-cyclopentyl-1,3-dihydro-2H-imidazo[4,5-c]pyridin-2-one] | 96% | 90% | IC50 [1]: 0.19 µM; IC50 [2]: 0.24 µM; IC50 [3]: 63.3 ± 10.5 µM; IC50 ([4]; Homo sapiens, U-251, 72 h): 33.3 ± 3.36 µM; IC50 ([5]; Homo sapiens, T98G): 20.6 ± 0.3 µM; IC50 [6]: 67.2 ± 3.2 µM |
| Nc1nccc2c1n(-c1ccc(Cl)cc1)c(=O)n2C1CCCCC1 [Compound 1e, 4-amino-3-(4-chlorophenyl)-1-cyclohexyl-1H-imidazo[4,5-c]pyridin-2(3H)-one] | 88% | 76% | IC50 [1]: 0.073 µM; IC50 [2]: 0.58 µM; IC50 [3]: 53.6 ± 2.51 µM; IC50 ([4]; Homo sapiens, U-251, 72 h): 36.1 ± 2.53 µM; IC50 ([5]; Homo sapiens, T98G): 20.1 ± 0.67 µM; IC50 [6]: > 100 µM |
| CC(C)(C)n1c(=O)n(-c2ccc(Cl)cc2)c2c(N)nccc21 [Compound 1f, 4-amino-1-(tert-butyl)-3-(4-chlorophenyl)-1H-imidazo[4,5-c]pyridin-2(3H)-one] | 84% | 62% |  |
| CC(C)Cn1c(=O)n(-c2ccc(Cl)cc2)c2c(N)nccc21 [Compound 1g, 4-amino-3-(4-chlorophenyl)-1-isobutyl-1H-imidazo[4,5-c]pyridin-2(3H)-one] | 16% | 19% |  |
| CN(C)CCn1c(=O)n(-c2ccc(Cl)cc2)c2c(N)nccc21 [Compound 1h, 4-amino-3-(4-chlorophenyl)-1-(2-(dimethylamino)ethyl)-1H-imidazo[4,5-c]pyridin-2(3H)-one] | 18% | 19% |  |
| COCCn1c(=O)n(-c2ccc(Cl)cc2)c2c(N)nccc21 [Compound 1i, 4-amino-3-(4-chlorophenyl)-1-(2-methoxyethyl)-1H-imidazo[4,5-c]pyridin-2(3H)-one] | 65% | 24% |  |
| Nc1nccc2c1n(-c1ccc(Cl)cc1)c(=O)n2CCN1CCOCC1 [Compound 1j, 4-amino-3-(4-chlorophenyl)-1-(2-morpholinoethyl)-1H-imidazo[4,5-c]pyridin-2(3H)-one] | 5% | 12% |  |
| Cc1ccc(-n2c(=O)n(C3CCCC3)c3ccnc(N)c32)cc1 [Compound 1k, 4-amino-1-cyclopentyl-3-(p-tolyl)-1,3-dihydro-2H-imidazo[4,5-c]pyridin-2-one] | 88% | 65% |  |
| COc1ccc(-n2c(=O)n(C3CCCC3)c3ccnc(N)c32)cc1 [Compound 1l, 4-amino-1-cyclopentyl-3-(4-methoxyphenyl)-1,3-dihydro-2H-imidazo[4,5-c]pyridin-2-one] | 91% | 28% |  |
| Nc1nccc2c1n(-c1ccc(C(F)(F)F)cc1)c(=O)n2C1CCCC1 [Compound 1m, 4-amino-1-cyclopentyl-3-(4-(trifluoromethyl)phenyl)-1,3-dihydro-2H-imidazo[4,5-c]pyridin-2-one] | 11% | -2% |  |
| N#Cc1ccc(-n2c(=O)n(C3CCCC3)c3ccnc(N)c32)cc1 [Compound 1n, 4-(4-amino-1-cyclopentyl-2-oxo-1,2-dihydro-3H-imidazo[4,5-c]pyridin-3-yl)benzonitrile] | 45% | 44% |  |
| Nc1nccc2c1n(-c1ccc(CO)cc1)c(=O)n2C1CCCC1 [Compound 1o, 4-amino-1-cyclopentyl-3-(4-(hydroxymethyl)phenyl)-1,3-dihydro-2H-imidazo[4,5-c]pyridin-2-one] | 19% | 20% |  |
| Nc1nccc2c1n(-c1cccc(F)c1)c(=O)n2C1CCCC1 [Compound 1p, 4-amino-1-cyclopentyl-3-(3-fluorophenyl)-1,3-dihydro-2H-imidazo[4,5-c]pyridin-2-one] | 66% | 19% |  |
| Nc1nccc2c1n(-c1ccc3c(c1)OCO3)c(=O)n2C1CCCC1 [Compound 1q, 4-amino-3-(benzo[d][1,3]dioxol-5-yl)-1-cyclopentyl-1H-imidazo[4,5-c]pyridin-2(3H)-one] | 85% | 74% | IC50 [1]: 0.22 µM; IC50 [2]: 0.73 µM; IC50 [3]: 47 ± 3.78 µM; IC50 ([4]; Homo sapiens, U-251, 72 h): 30 ± 0.93 µM; IC50 ([5]; Homo sapiens, T98G): 20.7 ± 0.67 µM; IC50 [6]: 69 ± 8.39 µM |
| Nc1nccc2c1n(-c1ccc3[nH]ccc3c1)c(=O)n2C1CCCC1 [Compound 1r, 4-amino-1-cyclopentyl-3-(1H-indol-5-yl)-1,3-dihydro-2H-imidazo[4,5-c]pyridin-2-one] | 84% | 30% |  |
| Nc1nccc2c1n(-c1ccc(Oc3ccccc3)cc1)c(=O)n2C1CCCC1 [Compound 1s, 4-amino-1-cyclopentyl-3-(4-phenoxyphenyl)-1,3-dihydro-2H-imidazo[4,5-c]pyridin-2-one] | 93% | 90% | IC50 [1]: 0.15 µM; IC50 [2]: 0.21 µM; IC50 [3]: 30.3 ± 0.84 µM; IC50 ([4]; 72 h): 24.6 ± 2.28 µM; IC50 ([4]; Homo sapiens, U-251, 72 h): 24.6 µM; IC50 [5]: 16.4 ± 2.12 µM; IC50 ([5]; Homo sapiens, T98G): 16.4 µM; IC50 [6]: 50.5 µM |
| CC(C)(C)n1nc(-c2ccc(Cl)cc2)c2c(N)ncnc21 [PP2, reference compound] | 93% |  | IC50 [3]: 39.9 ± 6.91 µM; IC50 ([4]; Homo sapiens, U-251, 72 h): 21.1 ± 2.16 µM; IC50 ([5]; Homo sapiens, T98G): 12.5 ± 2.37 µM |
